Test results as given in patent US10613104B2, “Assay to determine anticoagulants in blood or blood plasma” (ZAFENA AB, priority 2014, dated 2020).

How the values were obtained:
[1] = test system: prothrombin time (PT) of control plasma NKP; test: 20 μL and 5 μL PT methods with reagent P161 at various added CaCl2, NKP + 500 μg/L apixaban; type: biochemical
Description: With each reagent three samples were analyzed by the two PT methods of the anticoagulant assay, the 20 μL-method and the 5 μL-method. Two of the samples were reference samples, the control plasmas NKP and ZAP, with established INR values of 1.00 and 2.50, respectively.

[2] = test system: prothrombin time (PT) of normal citrated blood; test: Three wet-chemistry Owren PT methods (Simple Simon PT) on normal citrated blood with added apixaban; type: biochemical
Description: Experimental work was performed with the commercially available ambient room temperature coagulation instrument, Simple Simon P T Zafena A B, Linköping, Sweden, with functions described in EP 1 636 595 B2. One instrument or reader was used for each PT-method. Alternatively, the same instrument could be used for all PT-methods.
The three instruments were used together standing next to one another on a laboratory bench in thermal equilibrium with the ambient room temperature of the laboratory.
The PT-reagent was the one delivered together with lot N223M of the Simple Simon PT product, a reagent of Owren-type that thus contains effective amounts of thromboplastin, fibrinogen and FV (the thromboplastin of rabbit brain origin and the fibrinogen and the FV of bovine blood plasma origin). Other Owren type reagents could also be used.
The reagent was in portions of 200 μL to which sample, citrated blood or citrated blood plasma, was added and mixed. The addition was by an end-to-end plastic capillary mounted at one end of a tubular body with a displacement mechanism in the other end, this to allow convenient mixing of sample and reagent. Such Mixxocaps with 10 μL capillaries are supplied with the Simple Simon PT product. To perform the experiments described, some Mixxocaps were fitted with 20 μL capillaries, or 5 μL capillaries instead of the 10 μL capillaries with which they were supplied by the manufacturer.
These blood samples and a blood sample with an INR 2.3 were analyzed by Simple Simon PT using sample volumes of 20 μL, 10 μL and 5 μL in 200 μL reagents. […]

[3] = apixaban 63 μg/L in normal citrated blood
[4] = apixaban 125 μg/L in normal citrated blood
[5] = apixaban 250 μg/L in normal citrated blood
[6] = apixaban 500 μg/L in normal citrated blood
[7] = apixaban 714 μg/L in normal citrated blood
[8] = apixaban 1000 μg/L in normal citrated blood

COc1ccc(-n2nc(C(N)=O)c3c2C(=O)N(c2ccc(N4CCCCC4=O)cc2)CC3)cc1 [apixaban]
5 uL-method NKP + 500 INR5c ([1]; reagent P161, added Ca2+ 4 mM): 1.18
20 uL-method NKP + 500 INR20c ([1]; reagent P161, added Ca2+ 4 mM): 1.83
20 uL-method NKP + 500 INR20c ([1]; reagent P161, added Ca2+ 8 mM): 2.15
20 uL-method NKP + 500 INR20c ([1]; reagent P161, added Ca2+ 16 mM): 3.15
20 uL-method NKP + 500 INR20c ([1]; reagent P161, added Ca2+ 24 mM): 3.30
5 uL-method NKP + 500 INR5c ([1]; reagent P161, added Ca2+ 32 mM): 1.49
20 uL-method NKP + 500 INR20c ([1]; reagent P161, added Ca2+ 32 mM): 3.38
INR 10 μL sample [2, 3]: 1.19
INR 20 μL sample [2, 3]: 1.41
INRc 5 μL sample [2, 3]: 1.06
INRc 10 μL sample [2, 3]: 1.12
INRc 20 μL sample [2, 3]: 1.21
INRo [2, 3]: 0.96
ΔINRc 10 μL − 5 μL [2, 3]: 0.06
ΔINRc 20 μL − 5 μL [2, 3]: 0.15
INR 10 μL sample [2, 4]: 1.32
INR 20 μL sample [2, 4]: 1.75
INRc 5 μL sample [2, 4]: 1.16
INRc 10 μL sample [2, 4]: 1.26
INRc 20 μL sample [2, 4]: 1.49
INRo [2, 4]: 1.02
ΔINRc 10 μL − 5 μL [2, 4]: 0.10
ΔINRc 20 μL − 5 μL [2, 4]: 0.32
INR 5 μL sample [2, 5]: 1.32
INR 10 μL sample [2, 5]: 1.64
INR 20 μL sample [2, 5]: 2.61
INRc 5 μL sample [2, 5]: 1.39
INRc 10 μL sample [2, 5]: 1.60
INRc 20 μL sample [2, 5]: 2.18
INRo [2, 5]: 1.07
ΔINRc 10 μL − 5 μL [2, 5]: 0.21
ΔINRc 20 μL − 5 μL [2, 5]: 0.79
INR 5 μL sample [2, 6]: 1.66
INR 10 μL sample [2, 6]: 2.27
INR 20 μL sample [2, 6]: 4.58
INRc 5 μL sample [2, 6]: 1.81
INRc 10 μL sample [2, 6]: 2.29
INRc 20 μL sample [2, 6]: 3.73
INRo [2, 6]: 1.09
ΔINRc 10 μL − 5 μL [2, 6]: 0.48
ΔINRc 20 μL − 5 μL [2, 6]: 1.92
INR 5 μL sample [2, 7]: 1.87
INR 10 μL sample [2, 7]: 2.78
INR 20 μL sample [2, 7]: 6.06
INRc 5 μL sample [2, 7]: 2.08
INRc 10 μL sample [2, 7]: 2.86
INRc 20 μL sample [2, 7]: 4.88
INRo [2, 7]: 0.91
ΔINRc 10 μL − 5 μL [2, 7]: 0.78
ΔINRc 20 μL − 5 μL [2, 7]: 2.80
INR 10 μL sample [2, 8]: 3.50
INR 20 μL sample [2, 8]: 8.76
INRc 5 μL sample [2, 8]: 2.51
INRc 10 μL sample [2, 8]: 3.69
INRc 20 μL sample [2, 8]: 6.94
INRo [2, 8]: 0.74
ΔINRc 10 μL − 5 μL [2, 8]: 1.16
ΔINRc 20 μL − 5 μL [2, 8]: 4.43
